Test results reported in publication PMC4645160, “Targeting kinases with anilinopyrimidines: discovery of N-phenyl-N’-[4-(pyrimidin-4-ylamino)phenyl]urea derivatives as selective inhibitors of class III receptor tyrosine kinase subfamily” (Scientific Reports, 2015).

Key:
[1] = tested on: Lewis Lung Carcinoma (LLC); experiment: In vivo anticancer activity toward Lewis Lung Carcinoma (LLC); conditions: LLC in C57BL mice, 27 at 7.5 mg/kg, CDDP at 1.5 mg/kg
Description: (§1) Besides, it was as cytotoxic as 19 towards cancer cells while showing a more favorable selectivity index. On these basis, compound 27 was chosen for in vivo experiments against a syngeneic murine solid tumor model, the murine Lewis Lung Carcinoma (LLC). The tumor growth inhibition induced by 27 was compared with that promoted by cisplatin (CDDP), the most common chemotherapeutic drug used in the treatment of lung cancers. Nine days after tumor inoculation, tumor-bearing mice were randomized into vehicle control and treatment groups (8 mice per group). Control mice received the vehicle (0.2%v/v EtOH and 99.8%v/v of a saline solution), whereas treated groups received daily doses of 27 (7.5 mg · kg^−1 in the vehicle solution composed of 0.2%v/v EtOH and 99.8%v/v of saline solution) or CDDP (1.5 mg · kg^−1 in saline solution). Tumor growth was estimated at day 20 (Fig. 7a). As an indication of the adverse side effects, changes in the body weights of tumor-bearing mice were monitored at day 1 and daily from day 9.
Figure 7 In vivo testing of compound 27. Lewis lung carcinoma (LLC) was implanted i.m. (2 · 10^6 cells inoculum) into the right hind leg of 8-week old imbred C57BL mice. Nine days after tumor inoculation (palpable tumor), tumor-bearing mice were randomized into vehicle control and treatment groups (8 mice per group). Compound 27 was dosed daily at 7.5 mg/kg ip and CDDP was dosed daily at 1.5 mg/kg ip. At day 20, animals were sacrificed (i.e., before tumor can cause the animal discomfort), the legs were amputated at the proximal end of the femur, and the inhibition of tumor growth was determined according to the difference in weight of the tumor-bearing leg and the healthy leg of the animals expressed as % referred to the control animals. Control was constituted by vehicle (0.2%v/v EtOH and 99.8%v/v of saline solution). CDDP was used as positive reference. Both 27 and CDDP were administered at the highest not toxic doses (7.5 and 1.5 mg/kg, respectively), as determined by MTD studies. (a) Average tumor weight (g) after 20 days of treatment with control or compounds. (b) Percentage of reduction in tumor growth after 20 days of treatment with respect to control mice. (c) Body weight changes. The body weight changes of LLC bearing C57BL mice treated with vehicle or tested compounds. Each drug was administered daily after 9 days from the tumor cell inoculum. Weights were measured at day 1 and daily from day 9. Error bars indicate the standard deviation.
All studies involving animal testing were carried out in accordance with the ethical guidelines for animal research adopted by the University of Padua, acknowledging the Italian regulation (D.L.G.S. 116/92) and European Directive 86/609/EEC as to the animal welfare and protection and the related codes of practice. […]

[2] = Body weight changes of LLC bearing mice; assay type: in vivo; conditions: LLC bearing C57BL mice, 27 daily 7.5 mg/kg ip
Description: as §1, with “Control mice received the vehicle (0.2%v/v EtOH and 99.8%v/v of a saline solution), whereas treated groups received daily doses of 27 (7.5 mg · kg^−1 in the vehicle solution composed of 0.2%v/v EtOH and 99.8%v/v of saline solution) or CDDP (1.5 mg · kg^−1 in saline solution). Tumor growth was estimated at day 20 (Fig. 7a).” left out
Figure 7 In vivo testing of compound 27. […] At day 20, animals were sacrificed (i.e., before tumor can cause the animal discomfort), the legs were amputated at the proximal end of the femur, and the inhibition of tumor growth was determined according to the difference in weight of the tumor-bearing leg and the healthy leg of the animals expressed as % referred to the control animals. […] Both 27 and CDDP were administered at the highest not toxic doses (7.5 and 1.5 mg/kg, respectively), as determined by MTD studies. […] Weights were measured at day 1 and daily from day 9. […]

panel of 48 kinases = experiment: KinomeScan primary screening (POC) at 10 μM; assay type: binding, human; conditions: POC values
Description: Synthesized compounds were screened against a panel of 48 kinases selected within the ScanEDGE subset of DiscoverX (http://www.discoverx.com/services/drug-discovery-development-services/kinase-profiling/kinomescan/scanedge). The ScanEDGE includes 97 kinases and is an economical approach to assess compounds selectivity throughout the human kinome. All the wt-TKs along with some relevant mutants of Abl1 (T315I) and of EGFR (L858R and L858R/T790M) were chosen. The remaining 18 targets (3 Tyrosine Kinases-Like, TKLs; 15 Serine-Threonine Kinases, STKs) were selected among the remaining kinases in the ScanEDGE subset on the basis of their well established role in cancer (see Fig. S2 for a graphical representation of the selected kinases with reference to the kinome tree. Some references highlighting the role of each kinase in cancer are also reported in Table S3).
The compounds were evaluated using the KinomeScan™ platform (http://www.discoverx.com/services/drug-discovery-development-services/kinase-profiling/kinomescan), that measures the ability of the test compound to disrupt the complex between a high affinity ATP-mimic probe immobilized on a solid support and the kinase of interest. The KinomeScan is a very helpful technology for the fast and reliable screening of a number of compounds against a wide and customizable panel of kinases. Besides, it is not based on the use of hazardous radioactive ^32P-ATP and has a very low rate of false positive (<1%)[44]. The screening platform outputs a “Percent of Control” (POC) value, statistically correlated to the dissociation constant (Kd) value (http://www.discoverx.com/tools-resources/leadhunter-study-reports-data-analysis), for each pair of kinase/ligand. The POC is calculated as reported in equation (1):
Where: test compound signal = amount of kinase still binding the probe after treatment with test compound; negative control signal = amount of kinase still binding the probe after treatment with DMSO (100% control); positive control signal = amount of kinase still binding the probe after treatment with control compound (0% control).
The compounds were tested at high concentration (10 μM), in order to highlight not only the main target but also the off-targets. The results of the preliminary screening are reported as heat map (Fig. 4; see also Table S4 for all the measured values), in which the compounds are grouped on the basis of the 6 or 5 substituent at the pyrimidine ring.

SMILES | Inhibition of tumor growth (%) ([1]; daily ip from day 9, day 20, versus vehicle control) | Average tumor weight (mean±S.D., g) ([1]; daily ip from day 9, day 20) [g] | Body weight loss [2] [%] | Selectivity profile (kinases targeted) in primary screening (panel of 48 kinases)
O=C(CN1CCOCC1)Nc1cccc(-c2cc(Nc3ccc(NC(=O)Nc4ccccc4)cc3)ncn2)c1 [Compound 27] | 84.7 | 0.075 ± 0.03 | < 10 | –
O=C(Nc1ccccc1)Nc1ccc(Nc2cc(-c3ccccc3)ncn2)cc1 [Compound 19] | – | – | – | class III RTK
